Data as given in patent publication US20080311126A1, “Antisense Oligonucleotides Directed to Ribonucleotide Reducatase R2 and Uses Thereof in Combination Therapies for the Treatment of Cancer” (Genesense Technologies, Inc, priority 2004, published 2008).
Oligonucleotides are written 5' to 3', each unit as a sugar letter and its base; * is a phosphorothioate linkage, no mark a phosphodiester; rarer units and linkages stand in square brackets, end groups in braces. Plain capitals give the bases only. d = 2'-deoxy (DNA)

What was measured:
Test in all cases: Relative colony forming efficiency (Example 17, Table 13)
Assay type in all cases: cell-based, human
[1] = tested on: HCT116 colon cell carcinoma; conditions: averages of 2-8 determinations
Method: (§1) Colony forming efficiency was determined using standard protocols. […] The test oligonucleotides were added to cell cultures in the presence of 2.5 μg of DOTMA/DOPE (Lipofectin; Life Technologies, Inc.) for four hours. The oligonucleotide was tested at 0.2 μM unless otherwise indicated. Controls were the cultures treated with lipofectin but without the oligonucleotide. […] Surviving cells were visualized by methylene blue staining, and colonies were scored. In some experiments cell aliquots were removed from the culture and viability was determined using the trypan blue exclusion test. Results were analyzed as percent of surviving cells compared to control cells. To test the antisense effects of many of these sequences as phosphorthioate deoxyribonucleotides, they were examined in relative colony forming experiments conducted as described in Example 16 with a series of human tumour cell lines. The results (shown as % inhibition of colony forming ability) obtained with cancer cells derived from the bladder, breast, lung, colon, pancreas, prostate, liver and cervix, are shown in Table 13. The specific cell lines employed are as follows: […]

A549 lung cell carcinoma = conditions: averages of 2-8 determinations
Method: as §1

[2] = tested on: T24 bladder cell carcinoma; conditions: averages of 2-8 determinations
Method: as §1

[3] = tested on: HepG2 hepatocellular carcinoma; conditions: averages of 2-8 determinations
Method: as §1

[4] = tested on: MDA PaCa-2 pancreatic cell carcinoma; conditions: MIA PaCa-2 pancreatic cell carcinoma; averages of 2-8 determinations
Method: as §1

[5] = tested on: PC-3 prostrate cell adenocarcinoma; conditions: averages of 2-8 determinations
Method: as §1

| Substance | Reduced relative colony forming efficiency, HCT116 (% inhibition of colony forming ability) [1] [%] | Reduced relative colony forming efficiency, A549 (% inhibition of colony forming ability) (A549 lung cell carcinoma) [%] | Reduced relative colony forming efficiency, T24 (% inhibition of colony forming ability) [2] [%] | Reduced relative colony forming efficiency, HepG2 (% inhibition of colony forming ability) [3] [%] | Reduced relative colony forming efficiency, MIA PaCa-2 (% inhibition of colony forming ability) [4] [%] | Reduced relative colony forming efficiency, PC-3 (% inhibition of colony forming ability) [5] [%] |
| --- | --- | --- | --- | --- | --- | --- |
| ACTGCCATTGTCACTGCTAT (antisense dA*dC*dT*dG*dC*dC*dA*dT*dT*dG*dT*dC*dA*dC*dT*dG*dC*dT*dA*dT) [AS-II-1581-20] | 66.85 | 90.55 | 68.22 | 93.07 | 24.07 | 85.83 |
| AAGCGGCGGGGGTTTTCTCT (antisense dA*dA*dG*dC*dG*dG*dC*dG*dG*dG*dG*dG*dT*dT*dT*dT*dC*dT*dC*dT) [AS-II-414-20] | 19.1 | 12.44 | 11.67 | 30.89 | 36.11 | 60.94 |
| AS-II-134220 (antisense dG*dA*dA*dG*dT*dC*dA*dG*dC*dA*dT*dC*dC*dA*dA*dG*dG*dT*dA*dA) | 73.74 | 65.67 | 59.76 | 82.2 | 73.77 | 89.84 |
| CCAGCACTATAAACAGACAG (antisense dC*dC*dA*dG*dC*dA*dC*dT*dA*dT*dA*dA*dA*dC*dA*dG*dA*dC*dA*dG) [AS-II-1517-20] | – | – | – | – | – | 91.75 |
| ATCCAGCGCAAGGCCCAGTC (antisense dA*dT*dC*dC*dA*dG*dC*dG*dC*dA*dA*dG*dG*dC*dC*dC*dA*dG*dT*dC) [AS-II-816-20] | 88.22 | 78.4 | 73.91 | 93.08 | 93.21 | 94.08 |
| AGCCTCTGCCTTCTTATACA (antisense dA*dG*dC*dC*dT*dC*dT*dG*dC*dC*dT*dT*dC*dT*dT*dA*dT*dA*dC*dA) [AS-II-472-20] | 67.23 | 96.99 | 69.26 | – | 97.13 | 90.7 |
| AGCTGCTGCGGGTCCGTGAT (antisense dA*dG*dC*dT*dG*dC*dT*dG*dC*dG*dG*dG*dT*dC*dC*dG*dT*dG*dA*dT) [AS-II-225-20] | 59.5 | – | 73.23 | – | 95.44 | 30.06 |
| CAAATGGGTTCTCTACTCTG (antisense dC*dA*dA*dA*dT*dG*dG*dG*dT*dT*dC*dT*dC*dT*dA*dC*dT*dC*dT*dG) [AS-II-1217-20] | 68.68 | 91.49 | 66.36 | – | 34.85 | 81.03 |
| TCAGCATCCAAGGTAAAAGA (antisense dT*dC*dA*dG*dC*dA*dT*dC*dC*dA*dA*dG*dG*dT*dA*dA*dA*dA*dG*dA) [AS-II-1338-20] | 74.73 | 63.93 | 63.16 | 80.41 | 79.17 | 93.75 |
| GCGGCGGGGGTTTTCTCTCA (antisense dG*dC*dG*dG*dC*dG*dG*dG*dG*dG*dT*dT*dT*dT*dC*dT*dC*dT*dC*dA) [AS-II-412-20] | 27.98 | 43.78 | 22.2 | 26.23 | 55.25 | 73.96 |
